This note sets out measurements from patent US12441768B2, “Compositions and methods for treating endometriosis” (EndoMet Biosciences, Inc., priority 2018, dated 2025).

Where a SMILES comes first, the peptide text is derived from it.

Data set [1] concerns the target Wnt-responsive promoter (TCF/LEF). The data set can be described thus: Wnt-dependent luciferase reporter assay. Format: cell-based, murine. An outline of the steps: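 EC50 (uM) derived from inhibition of luminescence in Wnt3a-stimulated murine 3T3 cells expressing luciferase under a TCF/LEF promoter, with peptides added across a concentration range and vehicle as control.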

The next data set deals with T1, β-catenin (Homo sapiens, UniProt P35222).
T1 sequence (P35222 1-781): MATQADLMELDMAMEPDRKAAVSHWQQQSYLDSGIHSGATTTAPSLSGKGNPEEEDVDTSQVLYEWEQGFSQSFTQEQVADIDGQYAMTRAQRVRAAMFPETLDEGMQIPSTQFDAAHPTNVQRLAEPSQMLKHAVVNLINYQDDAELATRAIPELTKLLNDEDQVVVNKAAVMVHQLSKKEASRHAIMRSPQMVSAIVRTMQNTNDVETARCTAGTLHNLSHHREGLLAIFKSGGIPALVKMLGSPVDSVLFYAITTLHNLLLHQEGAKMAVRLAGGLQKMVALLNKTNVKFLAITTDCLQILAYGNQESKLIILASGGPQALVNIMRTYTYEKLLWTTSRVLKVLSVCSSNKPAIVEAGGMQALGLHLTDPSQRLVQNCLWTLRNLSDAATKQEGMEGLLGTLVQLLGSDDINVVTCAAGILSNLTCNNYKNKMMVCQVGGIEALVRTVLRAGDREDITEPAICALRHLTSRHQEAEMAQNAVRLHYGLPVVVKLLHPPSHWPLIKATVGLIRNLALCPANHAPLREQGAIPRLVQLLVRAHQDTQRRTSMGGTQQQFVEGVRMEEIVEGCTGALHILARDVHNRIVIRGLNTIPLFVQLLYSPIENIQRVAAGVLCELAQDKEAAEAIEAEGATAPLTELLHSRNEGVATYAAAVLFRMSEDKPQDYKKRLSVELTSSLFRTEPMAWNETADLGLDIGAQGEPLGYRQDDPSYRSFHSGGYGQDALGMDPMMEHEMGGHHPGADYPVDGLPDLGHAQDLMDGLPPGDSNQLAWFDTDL
The data set can be described thus: KD50 measurement using competitive fluorescence polarization (FP) with labelled TCF4. Format: binding. Particulars: fluorescence polarization, β-catenin; read-out: β-Cat FP KD. An outline of the steps: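 Competitive FP in which unlabelled inhibitor (10 nM to 30 uM dilution series) displaces 5 nM labelled TCF4 from 100 nM β-catenin, room temperature. Read-out ex 470 nm, em 520 nm; experiment repeated three times.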

For data set [2] the following is noted: % Viability non-Wnt responsive cells.

For `CC[C@H](C)[C@H](NC(=O)[C@H](CC(C)C)NC(=O)[C@H](Cc1ccccc1)NC(=O)[C@H](Cc1c[nH]c2ccccc12)NC(=O)[C@H](Cc1c[nH]c2ccccc12)NC(=O)[C@H](CCCNC(=N)N)NC(=O)[C@H](CO)NC(=O)[C@@H](N)CCSC)C(=O)N[C@@H](CO)C(=O)N[C@@H](Cc1ccccc1)C(=O)N[C@@H](Cc1c[nH]c2ccccc12)C(N)=O` [compound 78] (H-MSRWWFLISFW-NH2), the EC50 in data set [1] is over 30 µM. Further, the Kd on β-catenin is over 30 µM. Further, the viability in data set [2] came to 101%.
`CC[C@H](C)[C@H](NC(=O)[C@H](CC(C)C)NC(=O)[C@H](Cc1ccccc1)NC(=O)[C@H](Cc1c[nH]c2ccccc12)NC(=O)[C@H](CCSC)NC(=O)[C@H](CCCNC(=N)N)NC(=O)[C@H](CO)NC(=O)[C@@H](N)Cc1c[nH]c2ccccc12)C(=O)N[C@@H](CO)C(=O)N[C@@H](Cc1ccccc1)C(=O)N[C@@H](Cc1c[nH]c2ccccc12)C(N)=O` [compound 79] (H-WSRMWFLISFW-NH2): in data set [1], the EC50 was over 30 µM. For the same compound, the Kd on β-catenin is over 30 µM. Besides, in data set [2], the viability worked out at 98.8%.
Consider `CC[C@H](C)[C@H](NC(=O)[C@H](CC(C)C)NC(=O)[C@H](Cc1c[nH]c2ccccc12)NC(=O)[C@H](Cc1c[nH]c2ccccc12)NC(=O)[C@H](CCSC)NC(=O)[C@H](CCCNC(=N)N)NC(=O)[C@H](CO)NC(=O)[C@@H](N)CCSC)C(=O)N[C@@H](CO)C(=O)N[C@@H](Cc1ccccc1)C(=O)N[C@@H](Cc1c[nH]c2ccccc12)C(N)=O` [compound 80] (H-MSRMWWLISFW-NH2), for which, in data set [1], the EC50 was over 30 µM. For the same compound, on β-catenin, the Kd was over 30 µM. Moreover, the viability in data set [2] turned out to be 101%.
Turning to `CC[C@H](C)[C@H](NC(=O)[C@H](CC(C)C)NC(=O)[C@H](Cc1ccccc1)NC(=O)[C@H](Cc1c[nH]c2ccccc12)NC(=O)[C@H](CCSC)NC(=O)[C@H](CCCNC(=N)N)NC(=O)[C@H](CO)NC(=O)[C@@H](N)Cc1ccccc1)C(=O)N[C@@H](CO)C(=O)N[C@@H](Cc1ccccc1)C(=O)N[C@@H](Cc1c[nH]c2ccccc12)C(N)=O` [compound 81] (H-FSRMWFLISFW-NH2), the EC50 in data set [1] was over 30 µM. In addition, on β-catenin, the Kd is over 30 µM. In addition, the viability in data set [2] came to 90.7%.
In turn, `CC[C@H](C)[C@H](NC(=O)[C@H](CC(C)C)NC(=O)[C@H](Cc1ccccc1)NC(=O)[C@H](Cc1c[nH]c2ccccc12)NC(=O)[C@H](CCSC)NC(=O)[C@H](CCCNC(=N)N)NC(=O)[C@H](CO)NC(=O)[C@@H](N)Cc1ccc(O)cc1)C(=O)N[C@@H](CO)C(=O)N[C@@H](Cc1ccccc1)C(=O)N[C@@H](Cc1c[nH]c2ccccc12)C(N)=O` [compound 82] (H-YSRMWFLISFW-NH2) yielded an EC50 in data set [1] of over 30 µM. Besides, at β-catenin, the Kd was over 30 µM. For the same compound, the viability in data set [2] was determined as 84%.
With `CC[C@H](C)[C@H](NC(=O)[C@H](CC(C)C)NC(=O)[C@H](Cc1ccccc1)NC(=O)[C@H](Cc1c[nH]c2ccccc12)NC(=O)[C@H](CCSC)NC(=O)[C@H](CCCNC(=N)N)NC(=O)[C@H](CO)NC(=O)[C@@H](N)CCCCN)C(=O)N[C@@H](CO)C(=O)N[C@@H](Cc1ccccc1)C(=O)N[C@@H](Cc1c[nH]c2ccccc12)C(N)=O` [compound 83] (H-KSRMWFLISFW-NH2), in data set [1], the EC50 is over 30 µM. Besides, at β-catenin, the Kd is over 30 µM. The viability in data set [2] amounted to 90.9%.
The compound `CC[C@H](C)[C@H](NC(=O)[C@H](CC(C)C)NC(=O)[C@H](Cc1ccccc1)NC(=O)[C@H](Cc1c[nH]c2ccccc12)NC(=O)[C@H](CCSC)NC(=O)[C@H](CCCNC(=N)N)NC(=O)[C@H](CO)NC(=O)[C@@H](N)CCCNC(=N)N)C(=O)N[C@@H](CO)C(=O)N[C@@H](Cc1ccccc1)C(=O)N[C@@H](Cc1c[nH]c2ccccc12)C(N)=O` [compound 84] (H-RSRMWFLISFW-NH2) yielded an EC50 in data set [1] of over 30 µM. For the same compound, at β-catenin, the Kd is over 30 µM. Also, the viability in data set [2] is 88.6%.
In data set [1], `CC[C@H](C)[C@H](NC(=O)[C@H](CC(C)C)NC(=O)[C@H](Cc1ccccc1)NC(=O)[C@H](Cc1c[nH]c2ccccc12)NC(=O)[C@H](CCSC)NC(=O)[C@H](CCCNC(=N)N)NC(=O)[C@H](CO)NC(=O)[C@@H](N)CC(=O)O)C(=O)N[C@@H](CO)C(=O)N[C@@H](Cc1ccccc1)C(=O)N[C@@H](Cc1c[nH]c2ccccc12)C(N)=O` [compound 85] (H-DSRMWFLISFW-NH2) came in with an EC50 of over 30 µM. Further, the Kd at β-catenin is over 30 µM. Moreover, the viability in data set [2] was 107%.
On to `CC[C@H](C)[C@H](NC(=O)[C@H](CC(C)C)NC(=O)[C@H](Cc1ccccc1)NC(=O)[C@H](Cc1c[nH]c2ccccc12)NC(=O)[C@H](CCSC)NC(=O)[C@H](CCCNC(=N)N)NC(=O)[C@H](CO)NC(=O)[C@@H](N)CCC(=O)O)C(=O)N[C@@H](CO)C(=O)N[C@@H](Cc1ccccc1)C(=O)N[C@@H](Cc1c[nH]c2ccccc12)C(N)=O` [compound 86] (H-ESRMWFLISFW-NH2), for which the EC50 in data set [1] was over 30 µM. Further, on β-catenin, the Kd is over 30 µM. Also, in data set [2], the viability turned out to be 103%.
In data set [1], `CC[C@H](C)[C@H](NC(=O)[C@H](CC(C)C)NC(=O)[C@H](Cc1ccccc1)NC(=O)[C@H](Cc1c[nH]c2ccccc12)NC(=O)[C@H](CCCCN)NC(=O)[C@H](CCCNC(=N)N)NC(=O)[C@H](CO)NC(=O)[C@@H](N)CCSC)C(=O)N[C@@H](CO)C(=O)N[C@@H](Cc1ccccc1)C(=O)N[C@@H](Cc1c[nH]c2ccccc12)C(N)=O` [compound 87] (H-MSRKWFLISFW-NH2) yielded an EC50 of over 30 µM. Also, on β-catenin, the Kd was over 30 µM. For the same compound, the viability in data set [2] amounted to 114%.
In data set [1], `CC[C@H](C)[C@H](NC(=O)[C@H](CC(C)C)NC(=O)[C@H](Cc1ccccc1)NC(=O)[C@H](Cc1c[nH]c2ccccc12)NC(=O)[C@H](Cc1c[nH]cn1)NC(=O)[C@H](CCCNC(=N)N)NC(=O)[C@H](CO)NC(=O)[C@@H](N)CCSC)C(=O)N[C@@H](CO)C(=O)N[C@@H](Cc1ccccc1)C(=O)N[C@@H](Cc1c[nH]c2ccccc12)C(N)=O` [compound 88] (H-MSRHWFLISFW-NH2) displayed an EC50 of over 30 µM. Moreover, the Kd on β-catenin was over 30 µM. Besides, in data set [2], the viability is 105%.
As to `CC[C@H](C)[C@H](NC(=O)[C@H](CC(C)C)NC(=O)[C@H](Cc1ccccc1)NC(=O)[C@H](Cc1c[nH]c2ccccc12)NC(=O)[C@H](CCSC)NC(=O)[C@H](CCCNC(=N)N)NC(=O)[C@H](CO)NC(=O)[C@@H](N)Cc1c[nH]cn1)C(=O)N[C@@H](CO)C(=O)N[C@@H](Cc1ccccc1)C(=O)N[C@@H](Cc1c[nH]c2ccccc12)C(N)=O` [compound 89] (H-HSRMWFLISFW-NH2), the EC50 in data set [1] is over 30 µM. The Kd at β-catenin was over 30 µM. For the same compound, the viability in data set [2] stood at 107%.
Regarding `CC[C@H](C)[C@H](NC(=O)[C@H](CC(C)C)NC(=O)[C@H](Cc1ccccc1)NC(=O)[C@H](Cc1c[nH]c2ccccc12)NC(=O)[C@H](CCCCN)NC(=O)[C@H](CCCNC(=N)N)NC(=O)[C@H](CO)NC(=O)[C@@H](N)Cc1c[nH]c2ccccc12)C(=O)N[C@@H](CO)C(=O)N[C@@H](Cc1ccccc1)C(=O)N[C@@H](Cc1c[nH]c2ccccc12)C(N)=O` [compound 90] (H-WSRKWFLISFW-NH2), the EC50 in data set [1] is over 30 µM. For the same compound, the Kd at β-catenin was over 30 µM. Moreover, the viability in data set [2] turned out to be 83.3%.
In data set [1], `CC[C@H](C)[C@H](NC(=O)[C@H](CC(C)C)NC(=O)[C@H](Cc1ccccc1)NC(=O)[C@H](Cc1c[nH]c2ccccc12)NC(=O)[C@H](Cc1c[nH]cn1)NC(=O)[C@H](CCCNC(=N)N)NC(=O)[C@H](CO)NC(=O)[C@@H](N)Cc1c[nH]c2ccccc12)C(=O)N[C@@H](CO)C(=O)N[C@@H](Cc1ccccc1)C(=O)N[C@@H](Cc1c[nH]c2ccccc12)C(N)=O` [compound 91] (H-WSRHWFLISFW-NH2) had an EC50 of over 30 µM. For the same compound, the Kd at β-catenin was over 30 µM. Besides, the viability in data set [2] came out at 84.6%.
The compound `CC[C@H](C)[C@H](NC(=O)[C@H](CC(C)C)NC(=O)[C@H](Cc1ccccc1)NC(=O)[C@H](Cc1c[nH]c2ccccc12)NC(=O)[C@H](Cc1c[nH]c2ccccc12)NC(=O)[C@H](CCCNC(=N)N)NC(=O)[C@H](CO)NC(=O)[C@@H](N)Cc1c[nH]c2ccccc12)C(=O)N[C@@H](CO)C(=O)N[C@@H](Cc1ccccc1)C(=O)N[C@@H](Cc1c[nH]c2ccccc12)C(N)=O` [compound 92] (H-WSRWWFLISFW-NH2) registered an EC50 in data set [1] of 15 to 22.5 µM. Besides, the Kd at β-catenin was over 30 µM. Moreover, the viability in data set [2] worked out at 87.8%.
The corresponding values for `CC[C@H](C)[C@H](NC(=O)[C@H](CC(C)C)NC(=O)[C@H](Cc1ccccc1)NC(=O)[C@H](Cc1c[nH]c2ccccc12)NC(=O)[C@H](CCCCN)NC(=O)[C@H](CCCNC(=N)N)NC(=O)[C@H](CO)NC(=O)[C@@H](N)CCCCN)C(=O)N[C@@H](CO)C(=O)N[C@@H](Cc1ccccc1)C(=O)N[C@@H](Cc1c[nH]c2ccccc12)C(N)=O` [compound 93] (H-KSRKWFLISFW-NH2) are over 30 µM, over 30 µM and 94%.
